Results as given in US20240319202A1, “METHOD FOR EVALUATING AGGREGATION STATE OF AGGREGATIVE PROTEIN” (HAMAMATSU PHOTONICS K.K., priority 2023, published 2024).

How the values were obtained:
lysozyme = molecular target: T1, lysozyme (Gallus gallus, UniProt P00698); assay: Evaluation of aggregation state of heat-denatured lysozyme using light-absorption/fluorescence characteristics of a xanthene dye as index; conditions: lysozyme 7 μM, dye 1 μM, heat-stirred at 60° C.
T1 construct: purchased FUJIFILM Wako Pure Chemical Corporation
Description: 40 mg of lysozyme (manufactured by FUJIFILM Wako Pure Chemical Corporation) was added to 2 mL of an aqueous solution of 25 mM of hydrochloric acid and 100 mM of sodium chloride, and dissolved by being left to stand. The obtained lysozyme solution was heat-stirred at 200 rpm at 60° C. to cause heat denaturation of the lysozyme, thereby starting the aggregation reaction of the lysozyme. At 0, 10, 20, 25, 30, 35, 40, 45, 50, 60, 70, 80, and 90 minutes after starting heat-stirring, each of 100 μL of the lysozyme solution was extracted and ice-cooled. The ice-cooled lysozyme solution, and rose bengal (manufactured by FUJIFILM Wako Pure Chemical Corporation) were added to distilled water such that final concentrations were each 7 μM and 1 μM. The obtained solution was put in a spectroscopic measurement cell to measure the light-absorption/fluorescence characteristics. The excitation wavelength in fluorescence measurement was 530 nm.
Sample preparation and light absorption and fluorescence measurement were performed in the same manner as in Example 1 except that eosin Y (manufactured by FUJIFILM Wako Pure Chemical Corporation) was used instead of rose bengal as the xanthene dye, and that the excitation wavelength in fluorescence measurement was set to 500 nm. […]

[1] = molecular target: T2, horseradish peroxidase (HRP) (Armoracia rusticana, UniProt P00433); assay: Evaluation of aggregation state of heat-denatured horseradish peroxidase using light-absorption/fluorescence characteristics of rose bengal as index; conditions: HRP 5 μM, dye 1 μM, heat-stirred at 70° C., PBS pH 7.4
T2 construct: purchased FUJIFILM Wako Pure Chemical Corporation
T2 sequence (P00433 31-338): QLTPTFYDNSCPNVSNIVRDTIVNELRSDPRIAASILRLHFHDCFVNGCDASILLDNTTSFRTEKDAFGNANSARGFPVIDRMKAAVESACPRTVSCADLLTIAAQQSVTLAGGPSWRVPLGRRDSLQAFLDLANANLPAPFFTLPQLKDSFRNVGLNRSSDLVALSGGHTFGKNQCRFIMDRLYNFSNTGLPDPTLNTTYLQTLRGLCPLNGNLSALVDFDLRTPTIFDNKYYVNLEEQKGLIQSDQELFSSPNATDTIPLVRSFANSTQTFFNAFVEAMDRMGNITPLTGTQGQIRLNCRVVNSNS
Description: 40 mg of horseradish peroxidase (HRP, manufactured by FUJIFILM Wako Pure Chemical Corporation) was added to 2 mL of phosphate buffered saline at pH 7.4, and dissolved by being left to stand. The obtained HRP solution was heat-stirred at 200 rpm at 70° C. to cause heat denaturation of the HRP, thereby starting the aggregation reaction of the HRP. At 0, 5, 10, 15, 20, 25, 30, 35, 40, 50, 60, 70, 80, and 90 minutes after starting heat-stirring, each of 100 μL of the HRP solution was extracted and ice-cooled. The ice-cooled HRP solution, and rose bengal (manufactured by FUJIFILM Wako Pure Chemical Corporation) were added to distilled water such that final concentrations were each 5 μM and 1 μM. The obtained solution was put in a spectroscopic measurement cell to measure the light-absorption/fluorescence characteristics. The excitation wavelength in fluorescence measurement was 530 nm.

T1 sequence (P00698 19-147): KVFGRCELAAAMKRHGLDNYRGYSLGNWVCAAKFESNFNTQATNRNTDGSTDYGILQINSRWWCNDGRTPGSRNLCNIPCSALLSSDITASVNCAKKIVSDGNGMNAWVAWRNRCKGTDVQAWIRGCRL

SMILES | shape of the absorption spectra, maximum absorption wavelength and maximum absorbance versus heat denaturation time (lysozyme) | heat denaturation time at the minimum point of maximum absorbance (decreasing, thereafter increasing) ([1]; HRP absorption subtracted) | heat denaturation time at the minimum point of fluorescence intensity at around 570 nm and maximum fluorescence intensity (decreasing, thereafter increasing) ([1]; excitation 530 nm)
O.O=C([O-])c1ccccc1-c1c2cc(I)c(=O)c(I)c-2oc2c(I)c([O-])c(I)cc12.[Na+].[Na+] [erythrosin B] | changed depending on a heat denaturation time |  | 
O=C(O)c1c(Cl)c(Cl)c(Cl)c(Cl)c1-c1c2cc(I)c(=O)c(I)c-2oc2c(I)c(O)c(I)cc12 [rose bengal] |  | around 20 minutes | around 20 minutes
